According to the NIST ThermoML archive (doi:10.1021/je900915p):
± gives the expanded uncertainty stated by the source.

Assays:
[1] = 298.15 K, 101.33 kPa, Liquid; for viscosity: Capillary tube (Ostwald / Ubbelohde) method
[2] = xn = mol fraction of the nth substance listed; conditions: 298.15 K, 101 kPa, Liquid; for viscosity: Capillary tube (Ostwald / Ubbelohde) method
[3] = mn = molality of the nth substance listed, in mol/kg; conditions: 298.15 K, 101 kPa, Liquid; for speed of sound: Pulse-echo method

CC#N [acetonitrile]
[1]
Conditions	mass density [kg/m3]	viscosity [mPa·s]
–	776.85 ± 0.66	0.341 ± 0.004

CC#N [acetonitrile] + N#CCCCCC#N
[2], x1 = 1
Conditions	mass density [kg/m3]	viscosity [mPa·s]
–	776.85 ± 0.5	0.341 ± 0.003

Cc1ccc2ccc3ccc(C)nc3c2n1.Cc1ccc2ccc3ccc(C)nc3c2n1.[Cu+2].[O-][Cl+3]([O-])([O-])[O-].[O-][Cl+3]([O-])([O-])[O-] [bis-(2,9-dimethyl-1,10-phenanthroline) copper perchlorate] + CC#N
[3]
Conditions	mass density [kg/m3]	speed of sound [m/s]
m1 = 0.02474	792.91 ± 0.51	1273.2 ± 0.99
m1 = 0.03841	801.84 ± 0.5	1274.5 ± 1
m1 = 0.05937	815.69 ± 0.49	1275.9 ± 1.1
m1 = 0.08169	830.27 ± 0.48	1277.3 ± 1.1
m1 = 0.1218	857.14 ± 0.46	1279.7 ± 1.1

N#CCCCCC#N [hexanedinitrile]
[1]
Conditions	mass density [kg/m3]	viscosity [mPa·s]
–	975.26 ± 0.28	5.99 ± 0.06

N#CCCCCC#N [hexanedinitrile] + CC#N
[2]
Conditions	mass density [kg/m3]	viscosity [mPa·s]
x2 = 0.5	892.51 ± 0.34	1.61 ± 0.012
x2 = 0.6	880 ± 0.36	1.41 ± 0.01
x2 = 0.7	870 ± 0.37	1.057 ± 0.008
x2 = 0.8	848.59 ± 0.4	0.684 ± 0.005
x2 = 0.9	818.58 ± 0.44	0.506 ± 0.004

O=[N+]([O-])[O-].[Ag+] [silver nitrate] + CC#N
[3]
Conditions	mass density [kg/m3]	speed of sound [m/s]
m1 = 0.0283	785.04 ± 0.5	1272 ± 0.97
m1 = 0.04474	789.86 ± 0.49	1273.5 ± 0.98
m1 = 0.06947	797.11 ± 0.48	1275.3 ± 0.99
m1 = 0.09727	805.38 ± 0.48	1277.7 ± 1
m1 = 0.1285	814.46 ± 0.47	1279.5 ± 1

CC#N.CC#N.CC#N.CC#N.[Cu+].[O-][Cl+3]([O-])([O-])[O-] [tetraacetonitrile copper perchlorate] + CC#N
[3]
Conditions	mass density [kg/m3]	speed of sound [m/s]
m1 = 0.02538	787.25 ± 0.5	1272.1 ± 0.98
m1 = 0.03962	793.19 ± 0.49	1273.7 ± 0.99
m1 = 0.0589	801.28 ± 0.49	1275 ± 1
m1 = 0.08537	812.53 ± 0.48	1276.7 ± 1
m1 = 0.1254	828.76 ± 0.46	1278.5 ± 1.1

CCCC[N+](CCCC)(CCCC)CCCC.O=[N+]([O-])[O-] [tetrabutylammonium nitrate] + CC#N
[3]
Conditions	mass density [kg/m3]	speed of sound [m/s]
m1 = 0.02174	781.56 ± 0.5	1272.7 ± 0.97
m1 = 0.04144	785.96 ± 0.5	1273.7 ± 0.99
m1 = 0.06482	791.21 ± 0.5	1275.2 ± 1
m1 = 0.08753	796.37 ± 0.49	1276.6 ± 1
m1 = 0.1139	802.45 ± 0.49	1279.3 ± 1.1

CCCC[N+](CCCC)(CCCC)CCCC.[O-][Cl+3]([O-])([O-])[O-] [tetrabutylammonium perchlorate] + CC#N
[3]
Conditions	mass density [kg/m3]	speed of sound [m/s]
m1 = 0.02616	783.32 ± 0.5	1272.4 ± 0.98
m1 = 0.04068	786.97 ± 0.5	1273.2 ± 0.99
m1 = 0.06312	792.62 ± 0.5	1275.2 ± 1
m1 = 0.09762	801.31 ± 0.49	1276.8 ± 1
m1 = 0.1502	814.61 ± 0.49	1278.2 ± 1.1
